This note sets out measurements from article PMC12040169 (PLOS Biology, 2025).

This series in a line: in vitro. The settings on record: human, hela cells.

What is called viability is a read-out of living cells in per cent, often relative to untreated cells.

With `Oc1cc(C(F)(F)F)nc(NCc2cccc3ccccc23)n1` [CBK003716], the viability at 28.5 h, 10 µM (% viability) was 92.7%. Still for that read-out and setting: under `CCCNC(=O)c1ccc(NC(=O)NC(CC)c2ccnn2C)c(C)c1` (centres unmarked) [CBK307608] stands 104%. In the case of `NCc1ccc(CN(Cc2ccc(-c3ccccc3)cc2)C(=O)Nc2c(F)cccc2F)cc1` [CBK046115C], the viability at 28.5 h, 10 µM (% viability) came out at 104%. For `O=C(Nc1ccc(Br)cc1)c1c(O)n2c3c(cccc3c1=O)CCC2` [CBK291207], for the setting “% viability”, the viability at 28.5 h, 10 µM worked out at 103%. Turning to `COC(=O)c1ccc(S(N)(=O)=O)o1` [CBK113186], the viability at 28.5 h, 10 µM (% viability) worked out at 105%.

Turning to `COC(=O)c1ccccc1NC(C)=O` [CBK003522], the viability at 28.5 h, 10 µM (% viability, bulk resorufin, single well) was 107%. As for `CCN1C(=O)C2(CC(=O)N(CC(=O)OC)C2=O)c2cc(Cl)ccc21` (centres unmarked) [CBK075234], the viability at 28.5 h, 10 µM (% viability) was found to be 93.7%.

In the case of `COc1ccc2[nH]cc(CCNC(=O)CC(C)O)c2c1` (centres unmarked) [CBK116201], for the setting “% viability”, the viability at 28.5 h, 10 µM was found to be 106%. In the case of `Cc1[nH]ncc1CN1CCCC(c2cc3ccccc3cn2)C1` (centres unmarked) [CBK285029], where the note is “% viability”, the viability at 28.5 h, 10 µM is 108%. In the case of `O=C(O)c1ccc(N2C(=O)CC(N3CCN(Cc4ccc5c(c4)OCO5)CC3)C2=O)cc1` (centres unmarked) [CBK074573], the viability at 28.5 h, 10 µM (% viability) was 87.1%. With `COC(=O)c1cc(C)sc1NC(=S)Nc1ccccc1[N+](=O)[O-]` [CBK267047], where the note is “% viability”, the viability at 28.5 h, 10 µM came to 99.9%. In the case of `O=c1cc(Cn2ccnc2)c2cc3c(cc2o1)CCC3` [CBK287813], where the note is “% viability”, the viability at 28.5 h, 10 µM came to 88.8%. `O=C(O)CC(C(=O)Nc1ccccc1)N1CCOCC1` (centres unmarked) [CBK287182]: the viability at 28.5 h, 10 µM (% viability) was determined as 94.8%. For `CCc1nc2ccc(C(=O)N(C)CCN(C)C)cn2c1N(C)Cc1cc2ccccc2s1` [CBK146551], the viability at 28.5 h, 10 µM (% viability) stood at 89.3%. Take `CC(C)(C)C(=O)N1CCc2cc(C(O)CN3CCCC3)ccc21` (centres unmarked) [CBK282923]: the viability at 28.5 h, 10 µM (% viability) was found to be 93%. With `CC(Oc1ccc(C(C)(C)C)cc1)C(=O)Nc1nnc[nH]1` (centres unmarked) [CBK267431], the viability at 28.5 h, 10 µM (% viability) came to 94.8%. Turning to `Cc1cc(=O)c2ccccc2n1CC(=O)N1CCC2(CCO2)CC1` [CBK306809], where the note is “% viability”, the viability at 28.5 h, 10 µM was 88.5%.

`CCCC/C=C/c1cncc(N2CCN(Cc3ccccn3)CC2)n1` [CBK066096]: the viability at 28.5 h, 10 µM (% viability) came to 93.4%.

As for `O=C(O)c1sccc1S(=O)(=O)NCc1ccc(COCC(F)(F)F)cc1` [CBK296706], the viability at 28.5 h, 10 µM (% viability) stood at 110%.

`N=c1n(CC(=O)O)c2ccccc2n1Cc1ccccc1Cl` [CBK262917B]: the viability at 28.5 h, 10 µM (% viability) stood at 90.3%.

For `C#CCOc1cc(Br)c(/C=C(/C#N)c2ccc([N+](=O)[O-])cc2)cc1OCC` [CBK266617], the viability at 28.5 h, 10 µM (% viability) is 104%.

In the case of `CN(C)CCN(C)C(=O)c1ccc(-c2cc(C(F)(F)F)cc(C(F)(F)F)c2)nc1N(C)C` [CBK106069], where the note is “% viability”, the viability at 28.5 h, 10 µM is 97%. As for `COc1ccc(Nc2nc(Cl)nc(NCCN3CCOCC3)n2)cc1` [CBK027610], the viability at 28.5 h, 10 µM (% viability) was determined as 104%. Still for that read-out and setting: the figure for `CC1Cc2cc(C(=O)N3CCCCC3CN(C)C)ccc2O1` (centres unmarked) [CBK282193] is 110%. Consider `CCN(Cc1ccncc1)C(CC1CCCCC1)c1ccccc1` (centres unmarked) [CBK061639T], for which the viability at 28.5 h, 10 µM (% viability) is 97.3%.

As to `CCNC1(Cc2cc(C(=O)N3CCCCC3)on2)COC1` [CBK289671], the viability at 28.5 h, 10 µM (% viability) worked out at 84.2%. With `Cc1ccc2[nH]c(Cc3ccc(NC(=O)CCc4nc5ccccc5[nH]4)cc3)nc2c1` [CBK285801], the viability at 28.5 h, 10 µM (% viability) was found to be 87%. Take `O=C(O)Cc1sc(NCCN2CCOCC2)nc1-c1ccccc1` [CBK200113T]: the viability at 28.5 h, 10 µM (% viability) worked out at 88.7%. Take `NC(=O)c1c(NC(=O)CSc2nnc(-c3ccccc3)n2CC2CCCO2)sc2c1CCC2` (centres unmarked) [CBK084789]: the viability at 28.5 h, 10 µM (% viability) worked out at 110%. As to `C/C(=N\Nc1cc(-c2ccccc2)nc(C)n1)c1ccc(O)cc1` [CBK261710], the viability at 28.5 h, 10 µM (% viability) came out at 87.9%. As for `Cc1ccc2nc(C)cc(NC(=O)c3ccncc3)c2c1` [CBK287801], the viability at 28.5 h, 10 µM (% viability) amounted to 81.5%.

As to `Cc1nn(C)c(N2CCNCC2)c1NC(=O)COc1ccccc1` [CBK050249T], the viability at 28.5 h, 10 µM (% viability) is 103%.

For the compound `O=C(c1cccnc1)C1CCN(C(=O)C2CCCCC2)CC1` [CBK283817], the viability at 28.5 h, 10 µM (% viability) was determined as 90%. On to `CC(C)S(=O)(=O)n1ccn(-c2ccc(N(C)C)cc2)c1=O` [CBK106600], for which the viability at 28.5 h, 10 µM (% viability) worked out at 95.7%. Take `O=C(O)c1sc2cc(C(F)(F)F)cnc2c1-c1cccs1` [CBK089890]: under “% viability”, the viability at 28.5 h, 10 µM came out at 114%.

Consider `COc1ccc(CN2CCNC(=O)C2CC(=O)O)c(F)c1` (centres unmarked) [CBK270143], for which, for the setting “% viability”, the viability at 28.5 h, 10 µM was determined as 95.6%. On to `Cc1cc(C)c(C(=O)NC2CCN(c3ncccc3C#N)CC2)c(=O)[nH]1` [CBK306709], for which, for the setting “% viability”, the viability at 28.5 h, 10 µM was 110%. Take `NC(=O)C1CCN(C(=O)CSc2nc3ccccc3s2)CC1` [CBK293953]: for the setting “% viability”, the viability at 28.5 h, 10 µM was found to be 95.2%. For `Cc1nc(N)nc(NCCC2CCCN(C)C2)c1Cl` (centres unmarked) [CBK307445], the viability at 28.5 h, 10 µM (% viability) turned out to be 88.6%. Turning to `Cc1cc(O)ccc1Nc1cc(-c2ccc3c(c2)OCO3)ncn1` [CBK091053], the viability at 28.5 h, 10 µM (% viability) stood at 92.6%. Consider `Cc1cccc(C)c1NC(=O)Nc1cc(N2CCNCC2)c2occc2c1` [CBK061748C], for which, under “% viability”, the viability at 28.5 h, 10 µM is 82.8%.

With `Cc1nc2nc(SCc3cc(=O)n4ccccc4n3)nn2c(C)c1Cc1ccccc1` [CBK294460], the viability at 28.5 h, 10 µM (% viability) was found to be 89.9%. Consider `CNC(=O)c1ccc(-c2ccc(C(C)=O)s2)nc1NCC1CC1` [CBK106307], for which, where the note is “% viability”, the viability at 28.5 h, 10 µM came out at 95.3%.

Turning to `CC1CN(Cc2nc3c(c(=O)[nH]c(=O)n3C)n2Cc2cccc(Cl)c2)CC(C)O1` (centres unmarked) [CBK269450], the viability at 28.5 h, 10 µM (% viability) is 105%.

On to `CCCN1CCC(NC(C)CCCC(C)(C)O)CC1` (centres unmarked) [CBK261932], for which the viability at 28.5 h, 10 µM (% viability) turned out to be 99.3%.

Take `COC(=O)c1ccc(-c2ccc(F)cc2OC)nc1` [CBK149230]: the viability at 28.5 h, 10 µM (% viability) was found to be 88.3%. Regarding `CCOC(=O)N1CCC(NC(=O)N2CCN(c3ccccc3)CC2)CC1` [CBK155210], where the note is “% viability”, the viability at 28.5 h, 10 µM came out at 113%. Same read-out and setting: under `CC(=O)Nc1ccc(CCC2(NC(=O)C3CC3)CCCCC2)cn1` [CBK282290] stands 87.4%; under `COc1ccc(C2(NC(=O)Cn3ccnc3)CCCCC2)cc1` [CBK283661], 84%.

In the case of `CCN(CC)C(=O)c1ccc(N)cc1C` [CBK022686C], the viability at 28.5 h, 10 µM (% viability) is 93.5%. Regarding `C=CCn1c(SC(C)C(=O)O)nnc1-c1ccc(OC)cc1` (centres unmarked) [CBK268958], the viability at 28.5 h, 10 µM (% viability) was determined as 91.1%. As to `CC(N)Cc1cn(C)c2ccccc12` (centres unmarked) [CBK012030C], the viability at 28.5 h, 10 µM is 83.8%. Consider `Cc1ccc(Oc2ccc(NC(=O)Cn3cnnc3C#N)cc2)cc1` [CBK295612], for which the viability at 28.5 h, 10 µM (% viability) turned out to be 106%. With `COc1cc(C=CC(=O)N(C)c2ccccc2C(=O)O)cc(OC)c1OC` [CBK296136], the viability at 28.5 h, 10 µM (% viability) came to 93.1%.

As to `Cc1ccc(CNc2cc(C)ccn2)cc1` [CBK005419], the viability at 28.5 h, 10 µM (% viability) worked out at 106%. As to `Cc1csc(CCNCc2c(C(C)C)nn(C)c2N(C)C)n1` [CBK304140], the viability at 28.5 h, 10 µM (% viability) worked out at 89%.

As for `O[C@H]1[C@H](NCc2ccco2)[C@H]2CO[C@H](O2)[C@@H]1N1CCCCC1` [CBK288825], the viability at 28.5 h, 10 µM (% viability) came to 106%. On to `CCCNC(=O)c1ccc(C)c(S(=O)(=O)Nc2ccc(C)cc2C)c1` [CBK269084], for which the viability at 28.5 h, 10 µM (% viability) came to 88.8%. `Cc1nc(NC(=O)CCN2C(=O)COc3ccccc32)sc1-c1n[nH]c(=S)n1C` [CBK295362]: under “% viability”, the viability at 28.5 h, 10 µM was found to be 98.5%.
